“And” between values parts separate entries of the source, which are not always exact repeats. Equal entries are not always repeated. Toxic doses and inconclusive results are not listed.
Tested on: L1210 leukemia ip in BDF1 mice, survival T/C
Assay: NCI In Vivo Anticancer Drug Screen. Data for tumor model L1210 Leukemia (intraperitoneal) in B6D2F1 (BDF1) mice
Settings: endpoint: mean survival time, higher = longer survival
Summary of the method: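 Transplanted-tumor mice were given test agent; controls received vehicle only. Survival readings from the two groups were divided (treated over control).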

[1] = dose: 400.0 mg/kg/injection, schedule: Q01DX001 (ip), vehicle: carboxymethylcellulose (CMC)
[2] = dose: 100.0 mg/kg/injection, schedule: Q04DX003 (ip), vehicle: Klucel (hydroxypropylcellulose) (HPC)
[3] = dose: 200.0 mg/kg/injection, schedule: Q04DX003 (ip), vehicle: Klucel (hydroxypropylcellulose) (HPC)
[4] = dose: 400.0 mg/kg/injection, schedule: Q04DX003 (ip), vehicle: Klucel (hydroxypropylcellulose) (HPC)
[5] = dose: 100.0 mg/kg/injection, schedule: Q01DX009 (ip), vehicle: Klucel (hydroxypropylcellulose) (HPC)
[6] = dose: 100.0 mg/kg/injection, schedule: Q04DX003 (ip), vehicle: saline with Tween-80
[7] = dose: 200.0 mg/kg/injection, schedule: Q04DX003 (ip), vehicle: saline with Tween-80
[8] = dose: 200.0 mg/kg/injection, schedule: Q04DX002 (ip), vehicle: Klucel (hydroxypropylcellulose) (HPC)
[9] = dose: 100.0 mg/kg/injection, schedule: Q01DX001 (ip), vehicle: saline with Tween-80
[10] = dose: 100.0 mg/kg/injection, schedule: Q01DX001 (ip), vehicle: Klucel (hydroxypropylcellulose) (HPC)

CC(=O)C1(O)CCC2C3CC=C4CC(O)CCC4(C)C3CCC21C (centres undefined)
T/C (dose: 100.0 mg/kg/injection, schedule: Q01DX001 (ip), vehicle: carboxymethylcellulose (CMC)): 102 % of control
T/C (dose: 100.0 mg/kg/injection, schedule: Q01DX009 (ip), vehicle: carboxymethylcellulose (CMC)): 87 % of control and 90 % of control
T/C (dose: 100.0 mg/kg/injection, schedule: Q04DX002 (ip), vehicle: carboxymethylcellulose (CMC)): 98 % of control and 100 % of control
T/C (dose: 100.0 mg/kg/injection, schedule: Q04DX003 (ip), vehicle: carboxymethylcellulose (CMC)): 97 % of control
T/C (dose: 200.0 mg/kg/injection, schedule: Q01DX001 (ip), vehicle: carboxymethylcellulose (CMC)): 94 % of control
T/C (dose: 200.0 mg/kg/injection, schedule: Q01DX009 (ip), vehicle: carboxymethylcellulose (CMC)): 96 % of control and 97 % of control
T/C (dose: 200.0 mg/kg/injection, schedule: Q04DX002 (ip), vehicle: carboxymethylcellulose (CMC)): 100 % of control and 110 % of control
T/C (dose: 200.0 mg/kg/injection, schedule: Q04DX003 (ip), vehicle: carboxymethylcellulose (CMC)): 98 % of control
T/C [1]: 98 % of control
T/C (dose: 400.0 mg/kg/injection, schedule: Q01DX009 (ip), vehicle: carboxymethylcellulose (CMC)): 93 % of control and 94 % of control
T/C (dose: 400.0 mg/kg/injection, schedule: Q04DX002 (ip), vehicle: carboxymethylcellulose (CMC)): 97 % of control and 100 % of control
T/C (dose: 400.0 mg/kg/injection, schedule: Q04DX003 (ip), vehicle: carboxymethylcellulose (CMC)): 88 % of control

Cc1cc2nc3c(=O)[nH]c(=O)nc-3n(CCN(CCCl)CCCl)c2cc1C
T/C (dose: 42.0 mg/kg/injection, schedule: Q01DX015 (ip), vehicle: carboxymethylcellulose (CMC)): 115 % of control
T/C (dose: 72.0 mg/kg/injection, schedule: Q01DX015 (ip), vehicle: carboxymethylcellulose (CMC)): 96 % of control
T/C (dose: 120.0 mg/kg/injection, schedule: Q01DX015 (ip), vehicle: carboxymethylcellulose (CMC)): 86 % of control
T/C [1]: 152 % of control
T/C (dose: 600.0 mg/kg/injection, schedule: Q01DX001 (ip), vehicle: carboxymethylcellulose (CMC)): 103 % of control

CCC(=O)Nc1ccccc1OC
T/C [2]: 100 % of control
T/C [3]: 115 % of control
T/C [4]: 102 % of control

O=S(=O)(O)c1ccc(-c2ccc(S(=O)(=O)O)cc2)cc1
T/C (dose: 88.8 mg/kg/injection, schedule: Q01DX Z (ip), vehicle: methylcellulose (MC)): 98 % of control
T/C (dose: 133.0 mg/kg/injection, schedule: Q01DX Z (ip), vehicle: methylcellulose (MC)): 90 % of control
T/C (dose: 200.0 mg/kg/injection, schedule: Q01DX Z (ip), vehicle: methylcellulose (MC)): 86 % of control

Cc1cc(C)c(F)[c]([Hg][Br])c1N
T/C (dose: 12.5 mg/kg/injection, schedule: Q01DX009 (ip), vehicle: Klucel (hydroxypropylcellulose) (HPC)): 96 % of control
T/C (dose: 37.5 mg/kg/injection, schedule: Q01DX001 (ip), vehicle: Klucel (hydroxypropylcellulose) (HPC)): 94 % of control
T/C (dose: 50.0 mg/kg/injection, schedule: Q01DX009 (ip), vehicle: Klucel (hydroxypropylcellulose) (HPC)): 96 % of control
T/C [5]: 89 % of control

Clc1ccc(OCCOc2ccc(Cl)cc2)cc1
T/C [6]: 95 % of control
T/C [7]: 92 % of control
T/C (dose: 400.0 mg/kg/injection, schedule: Q04DX003 (ip), vehicle: saline with Tween-80): 106 % of control

COC(=O)c1ccc(=O)c2nc3/c(=C/O)c(O)cc(=O)c3[nH]c12
T/C (dose: 23.0 micrograms/kg/injection, schedule: Q01DX001 (ip), vehicle: acetone): 90 % of control
T/C (dose: 23.0 micrograms/kg/injection, schedule: Q01DX009 (ip), vehicle: saline): 100 % of control
T/C (dose: 23.0 micrograms/kg/injection, schedule: Q04DX003 (ip), vehicle: saline): 110 % of control
T/C (dose: 47.0 micrograms/kg/injection, schedule: Q01DX001 (ip), vehicle: acetone): 93 % of control
T/C (dose: 47.0 micrograms/kg/injection, schedule: Q01DX009 (ip), vehicle: saline): 113 % of control
T/C (dose: 47.0 micrograms/kg/injection, schedule: Q04DX003 (ip), vehicle: saline): 97 % of control
T/C (dose: 95.0 micrograms/kg/injection, schedule: Q01DX001 (ip), vehicle: acetone): 92 % of control
T/C (dose: 95.0 micrograms/kg/injection, schedule: Q04DX003 (ip), vehicle: saline): 101 % of control

CCOC(=O)Cc1nc2ccc(C)cc2[nH]1
T/C (dose: 100.0 mg/kg/injection, schedule: Q04DX002 (ip), vehicle: Klucel (hydroxypropylcellulose) (HPC)): 100 % of control
T/C [8]: 100 % of control
T/C (dose: 400.0 mg/kg/injection, schedule: Q04DX002 (ip), vehicle: Klucel (hydroxypropylcellulose) (HPC)): 115 % of control

CC(C)([CH2][Sn]([CH2]C(C)(C)c1ccccc1)[CH2]C(C)(C)c1ccccc1)c1ccccc1.CC(C)([CH2][Sn]([CH2]C(C)(C)c1ccccc1)[CH2]C(C)(C)c1ccccc1)c1ccccc1
T/C (dose: 75.0 mg/kg/injection, schedule: Q01DX001 (ip), vehicle: other): 101 % of control
T/C (dose: 150.0 mg/kg/injection, schedule: Q01DX001 (ip), vehicle: other): 106 % of control
T/C (dose: 300.0 mg/kg/injection, schedule: Q01DX001 (ip), vehicle: other): 94 % of control

COc1ccc(C(=O)NC(=S)Nc2ccc(I)cc2)cc1
T/C [5]: 98 % of control
T/C [2]: 89 % of control
T/C (dose: 200.0 mg/kg/injection, schedule: Q01DX009 (ip), vehicle: Klucel (hydroxypropylcellulose) (HPC)): 98 % of control
T/C [3]: 89 % of control
T/C (dose: 400.0 mg/kg/injection, schedule: Q01DX009 (ip), vehicle: Klucel (hydroxypropylcellulose) (HPC)): 91 % of control
T/C [4]: 94 % of control

O=c1ccn(C2CCCO2)c(=O)[nH]1 (centres undefined)
T/C (dose: 50.0 mg/kg/injection, schedule: Q01DX001 (ip), vehicle: saline): 105 % of control
T/C (dose: 100.0 mg/kg/injection, schedule: Q01DX001 (ip), vehicle: saline): 109 % of control
T/C (dose: 200.0 mg/kg/injection, schedule: Q01DX001 (ip), vehicle: saline): 100 % of control
T/C (dose: 400.0 mg/kg/injection, schedule: Q01DX001 (ip), vehicle: saline): 103 % of control

CCC/C=C(/C=O)CC
T/C [9]: 100 % of control
T/C (dose: 200.0 mg/kg/injection, schedule: Q01DX001 (ip), vehicle: saline with Tween-80): 96 % of control
T/C (dose: 400.0 mg/kg/injection, schedule: Q01DX001 (ip), vehicle: saline with Tween-80): 96 % of control

CCOC(=O)/C=C(\C)c1ccc([N+](=O)[O-])cc1
T/C [10]: 107 % of control
T/C (dose: 200.0 mg/kg/injection, schedule: Q01DX001 (ip), vehicle: Klucel (hydroxypropylcellulose) (HPC)): 100 % of control
T/C (dose: 400.0 mg/kg/injection, schedule: Q01DX001 (ip), vehicle: Klucel (hydroxypropylcellulose) (HPC)): 97 % of control

COc1cc([N+](=O)[O-])ccc1S(=O)(=O)Cl
T/C (dose: 25.0 mg/kg/injection, schedule: Q01DX009 (ip), vehicle: saline with Tween-80): 91 % of control
T/C (dose: 25.0 mg/kg/injection, schedule: Q04DX002 (ip), vehicle: saline with Tween-80): 104 % of control
T/C (dose: 25.0 mg/kg/injection, schedule: Q04DX003 (ip), vehicle: saline with Tween-80): 97 % of control
T/C (dose: 50.0 mg/kg/injection, schedule: Q01DX001 (ip), vehicle: saline with Tween-80): 101 % of control
T/C (dose: 50.0 mg/kg/injection, schedule: Q01DX009 (ip), vehicle: saline with Tween-80): 91 % of control
T/C (dose: 50.0 mg/kg/injection, schedule: Q04DX002 (ip), vehicle: saline with Tween-80): 93 % of control and 120 % of control
T/C (dose: 50.0 mg/kg/injection, schedule: Q04DX003 (ip), vehicle: saline with Tween-80): 103 % of control
T/C [9]: 92 % of control
T/C [6]: 94 % of control
T/C [7]: 88 % of control

Cc1nc(N)[nH]c(=O)c1CCCNC(=O)c1cccc(CBr)c1
T/C (dose: 50.0 mg/kg/injection, schedule: Q01DX001 (ip), vehicle: Klucel (hydroxypropylcellulose) (HPC)): 101 % of control
T/C [10]: 100 % of control
T/C [8]: 102 % of control

S=C([S][Sn]([c]1ccccc1)([c]1ccccc1)[c]1ccccc1)N(c1ccccc1)c1ccccc1
T/C (dose: 100.0 mg/kg/injection, schedule: Q01DX001 (ip), vehicle: steriod suspending solution): 89 % of control
T/C (dose: 200.0 mg/kg/injection, schedule: Q01DX001 (ip), vehicle: steriod suspending solution): 98 % of control
T/C (dose: 400.0 mg/kg/injection, schedule: Q01DX001 (ip), vehicle: steriod suspending solution): 104 % of control

O=[N+]([O-])c1ccc(N=C=C(c2ccccc2)c2ccccc2)cc1
T/C (dose: 100.0 mg/kg/injection, schedule: Q04DX002 (ip), vehicle: DMSO): 112 % of control
T/C (dose: 200.0 mg/kg/injection, schedule: Q04DX002 (ip), vehicle: DMSO): 91 % of control
T/C (dose: 400.0 mg/kg/injection, schedule: Q04DX002 (ip), vehicle: DMSO): 94 % of control

Source: PubChem BioAssay AID248 (DTP/NCI, 2004)
